Counter-ions that a name gives are not always drawn.

The first test addresses T1, recombinant human arginase 2 (Homo sapiens, UniProt P78540).
T1 sequence (P78540 23-354): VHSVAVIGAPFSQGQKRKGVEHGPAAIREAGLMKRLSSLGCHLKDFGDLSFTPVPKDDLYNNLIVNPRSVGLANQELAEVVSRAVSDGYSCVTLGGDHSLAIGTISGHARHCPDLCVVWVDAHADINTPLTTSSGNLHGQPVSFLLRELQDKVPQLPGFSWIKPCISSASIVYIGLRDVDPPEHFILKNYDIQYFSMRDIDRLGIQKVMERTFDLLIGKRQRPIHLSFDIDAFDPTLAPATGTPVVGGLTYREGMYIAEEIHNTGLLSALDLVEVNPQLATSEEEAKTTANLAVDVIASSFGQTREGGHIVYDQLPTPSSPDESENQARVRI
In words: Arginase inhibitory activity test, enzymatic assay based on urea measurement (Arg 2). As to conditions: 37° C. for 120 min, urea detection, read-out: Arg 2 enzymatic potency. It counts as biochemical. An excerpt: Urea was used as the standard.
As for `CC(C)(CN)NS(=O)(=O)N1C[C@H](CCCB(O)O)[C@](N)(C(=O)O)C1` (racemic) [Example 26, (rac)-trans-3-amino-1-(N-(1-amino-2-methylpropan-2-yl)sulfamoyl)-4-(3-boronopropyl)pyrrolidine-3-carboxylic acid, (1:2) 2,2,2-trifluoroacetic acid salt], the IC50 is under 100 nM. Same read-out and setting: the same measure for `NCC1(NS(=O)(=O)N2C[C@H](CCCB(O)O)[C@](N)(C(=O)O)C2)COC1` (racemic) [Example 31]: 100 to 1000 nM; for `N[C@@]1(C(=O)O)CN(S(=O)(=O)N2CCNCC2)C[C@@H]1CCCB(O)O` (racemic) [Example 30, (rac)-trans-3-amino-4-(3-boronopropyl)-1-(piperazin-1-ylsulfonyl)pyrrolidine-3-carboxylic acid, 2,2,2-trifluoroacetic acid salt (1:2)]: 100 to 1000 nM; for `N[C@@]1(C(=O)O)CN(S(=O)(=O)Nc2cc[nH]n2)C[C@@H]1CCCB(O)O` (racemic) [Example 6, (rac)trans-1-(N-(1H-pyrazol-3-yl)sulfamoyl)-3-amino-4-(3-boronopropyl)pyrrolidine-3-carboxylic acid, (1:2) 2,2,2-trifluoroacetic acid salt]: 100 to 1000 nM.

A further test has as its target T2, recombinant human arginase 1 (Homo sapiens, UniProt P05089).
T2 sequence (P05089 1-322): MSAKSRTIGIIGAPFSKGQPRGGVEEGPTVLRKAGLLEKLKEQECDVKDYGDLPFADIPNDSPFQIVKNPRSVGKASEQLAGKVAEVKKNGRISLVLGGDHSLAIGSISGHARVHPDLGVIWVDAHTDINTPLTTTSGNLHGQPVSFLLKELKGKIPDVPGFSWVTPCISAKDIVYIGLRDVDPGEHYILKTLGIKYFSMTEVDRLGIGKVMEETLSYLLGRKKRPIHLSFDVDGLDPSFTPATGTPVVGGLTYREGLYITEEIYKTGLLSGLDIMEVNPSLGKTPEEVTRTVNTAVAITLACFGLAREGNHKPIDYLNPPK
In words: Arginase inhibitory activity test, enzymatic assay based on urea measurement (Arg 1).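 Also: enzyme incubated with L-arginine substrate and compound at 37 °C for 120 min, urea product detected colorimetrically by absorbance at 450 nm, background from wells lacking enzyme.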
Details: not given
Take `CC(C)(CN)NS(=O)(=O)N1C[C@H](CCCB(O)O)[C@](N)(C(=O)O)C1` (racemic) [Example 26, (rac)-trans-3-amino-1-(N-(1-amino-2-methylpropan-2-yl)sulfamoyl)-4-(3-boronopropyl)pyrrolidine-3-carboxylic acid, (1:2) 2,2,2-trifluoroacetic acid salt]: the IC50 is under 100 nM. Still for that read-out and setting: then `NCC1(NS(=O)(=O)N2C[C@H](CCCB(O)O)[C@](N)(C(=O)O)C2)COC1` (racemic) [Example 31], with under 100 nM; and `N[C@@]1(C(=O)O)CN(S(=O)(=O)N2CCNCC2)C[C@@H]1CCCB(O)O` (racemic) [Example 30, (rac)-trans-3-amino-4-(3-boronopropyl)-1-(piperazin-1-ylsulfonyl)pyrrolidine-3-carboxylic acid, 2,2,2-trifluoroacetic acid salt (1:2)], with under 100 nM. As for `N[C@@]1(C(=O)O)CN(S(=O)(=O)Nc2cc[nH]n2)C[C@@H]1CCCB(O)O` (racemic) [Example 6, (rac)trans-1-(N-(1H-pyrazol-3-yl)sulfamoyl)-3-amino-4-(3-boronopropyl)pyrrolidine-3-carboxylic acid, (1:2) 2,2,2-trifluoroacetic acid salt], the IC50 lay in the range of 100 to 1000 nM.

Turning to `NC1CN(S(=O)(=O)N2C[C@H](CCCB(O)O)[C@](N)(C(=O)O)C2)C1` (racemic) [Example 33, (rac)-trans-3-amino-1-((3-aminoazetidin-1-yl)sulfonyl)-4-(3-boronopropyl)pyrrolidine-3-carboxylic acid, 2,2,2-trifluoroacetic acid salt (1:2)], the IC50 lay in the range of 100 to 1000 nM. Still for that read-out and setting: then `N[C@@H]1CCCCC1NS(=O)(=O)N1C[C@H](CCCB(O)O)[C@](N)(C(=O)O)C1` (mixture of isomers) [Example 20, (rac)trans-3-amino-1-(N-((rac)cis-2-aminocyclohexyl)sulfamoyl)-4-(3-boronopropyl)pyrrolidine-3-carboxylic acid (diastereomers), 2,2,2-trifluoroacetic acid salt (1:2)], with over 10000 nM; and `NC1(CNS(=O)(=O)N2C[C@H](CCCB(O)O)[C@](N)(C(=O)O)C2)COC1` (racemic) [Example 39, (rac)-trans-3-amino-1-(N-((3-aminooxetan-3-yl)methyl)sulfamoyl)-4-(3-boronopropyl)pyrrolidine-3-carboxylic acid, 2,2,2-trifluoroacetic acid salt (1:2)], with 100 to 1000 nM. On the same count and under the same terms, the same measure for `CC(C)N(C1CNC1)S(=O)(=O)N1C[C@H](CCCB(O)O)[C@](N)(C(=O)O)C1` [Example 57, (3R,4S)-3-amino-1-(N-(azetidin-3-yl)-N-isopropylsulfamoyl)-4-(3-boronopropyl)pyrrolidine-3-carboxylic acid, 2,2,2-trifluoroacetic acid salt (1:2)]: under 100 nM; for `N[C@@]1(C(=O)O)CN(S(=O)(=O)NCCO)C[C@@H]1CCCB(O)O` (racemic) [Example 10, (rac)trans-3-amino-4-(3-boronopropyl)-1-(N-(2-hydroxyethyl)sulfamoyl)pyrrolidine-3-carboxylic acid (1:1), 2,2,2-trifluoroacetic acid salt]: 100 to 1000 nM. Regarding `NCCCNS(=O)(=O)N1C[C@H](CCCB(O)O)[C@](N)(C(=O)O)C1` (racemic) [Example 21, (rac)-trans-3-amino-1-(N-(3-aminopropyl)sulfamoyl)-4-(3-boronopropyl)pyrrolidine-3-carboxylic acid (diastereomers), 2,2,2-trifluoroacetic acid salt (1:2)], the IC50 fell in the range of 100 to 1000 nM.

Turning to `NCCN(CC1CC1)S(=O)(=O)N1C[C@H](CCCB(O)O)[C@](N)(C(=O)O)C1` [Example 67, (3R,4S)-3-amino-1-(N-(2-aminoethyl)-N-(cyclopropylmethyl)sulfamoyl)-4-(3-boronopropyl)pyrrolidine-3-carboxylic acid, 2,2,2-trifluoroacetic acid salt (1:2)], the IC50 is under 100 nM. On the same count and under the same terms, then `N[C@@]1(C(=O)O)CN(S(=O)(=O)N(Cc2ccccc2)C2CNC2)C[C@@H]1CCCB(O)O` [Example 62, (3R,4S)-3-amino-1-(N-(azetidin-3-yl)-N-benzylsulfamoyl)-4-(3-boronopropyl)pyrrolidine-3-carboxylic acid, 2,2,2-trifluoroacetic acid salt (1:2)], with under 100 nM; and `Nc1ccccc1NS(=O)(=O)N1C[C@H](CCCB(O)O)[C@](N)(C(=O)O)C1` (racemic) [Example 13, (rac)trans-3-amino-1-(N-(2-aminophenyl)sulfamoyl)-4-(3-boronopropyl)pyrrolidine-3-carboxylic acid, (1:2) 2,2,2-trifluoroacetic acid salt], with 100 to 1000 nM.

For the molecule `CC1(NS(=O)(=O)N2C[C@H](CCCB(O)O)[C@](N)(C(=O)O)C2)CNC1` (racemic) [Example 43, (rac)-trans-3-amino-4-(3-boronopropyl)-1-(N-(3-methylazetidin-3-yl)sulfamoyl)pyrrolidine-3-carboxylic acid, 2,2,2-trifluoroacetic acid salt (1:2)], the IC50 was in the range of 100 to 1000 nM. The same measure, in the same setting: the same measure for `N[C@@]1(C(=O)O)CN(S(=O)(=O)N(c2ccccc2)C2CNC2)C[C@@H]1CCCB(O)O` [Example 64, (3R,4S)-3-amino-1-(N-(azetidin-3-yl)-N-phenylsulfamoyl)-4-(3-boronopropyl)pyrrolidine-3-carboxylic acid, 2,2,2-trifluoroacetic acid salt (1:2)]: under 100 nM; for `NCC(=O)NS(=O)(=O)N1C[C@H](CCCB(O)O)[C@](N)(C(=O)O)C1` (racemic) [Example 8, (rac)trans-3-amino-4-(3-boronopropyl)-1-(N-glycylsulfamoyl)pyrrolidine-3-carboxylic acid, (1:2) 2,2,2-trifluoroacetic acid salt]: 100 to 1000 nM.

In the case of `N[C@@]1(C(=O)O)CN(S(=O)(=O)N(CC2CC2)[C@H]2CCNC2)C[C@@H]1CCCB(O)O` [Example 71, (3R,4S)-3-amino-4-(3-boronopropyl)-1-(N-(cyclopropylmethyl)-N-((S)-pyrrolidin-3-yl)sulfamoyl)pyrrolidine-3-carboxylic acid, 2,2,2-trifluoroacetic acid salt (1:2)], the IC50 is under 100 nM. The same measure, in the same setting: then `NC1COCC1NS(=O)(=O)N1CC(CCCB(O)O)C(N)(C(=O)O)C1` (racemic) [Example 41, (rac)-trans-3-amino-1-(N-((trans)-4-aminotetrahydrofuran-3-yl)sulfamoyl)-4-(3-boronopropyl)pyrrolidine-3-carboxylic acid, 2,2,2-trifluoroacetic acid salt (1:2)], with 100 to 1000 nM; and `COC(=O)[C@@H](N)CNS(=O)(=O)N1C[C@H](CCCB(O)O)[C@](N)(C(=O)O)C1` (racemic) [Example 55], with under 100 nM.

Still in this test, the particulars now being: read-out: Arg 1 enzymatic potency; recombinant human arginase 1; 37° C. for 120 min; urea detection.
As for “(rac)trans-3-amino-1-(N-((S)-2-aminopropyl)sulfamoyl)-4-(3-boronopropyl)pyrrolidine-3-carboxylic acid (diastereomers), 2,2,2-trifluoroacetic acid salt (1:2) [Example 18]”, the IC50 lay in the range of 100 to 1000 nM.

The values above are taken from US20220251116A1, “ALKYLBORONIC ACIDS AS ARGINASE INHIBITORS” (Guangdong Newopp Biopharmaceuticals Co., Ltd., priority 2019, published 2022).
